The subject of assay [1] is medulloblastoma cells derived from sensitive Ptch+/−Hic+/− medulloblastoma tumors. In words: ex-vivo medulloblastoma proliferation assay (48 h, 3H thymidine incorporation), sensitive tumors. The assay is classed as cell-based. Particulars: Mus musculus, Medulloblastoma cell. On the procedure: (§1) The effect of mTor inhibitors (e.g., compounds such as Compound A) on the proliferation of medulloblastoma cells derived from sensitive and resistant medulloblastoma tumors was evaluated by using an “ex-vivo medulloblastoma proliferation assay. Sensitive tumors means tumors (e.g., medulloblastomas) which, due to hedgehog pathway activation, respond to treatment with a smoothened inhibitor anti-cancer regimen. Resistant tumors means formerly sensitive tumors (e.g., medulloblastomas) which, in the continuos presence of a smo inhibitor, either have regrown after shrinking due to treatment, or have reappeared after being temporarily eliminated due to treatment. Resistant tumors show a decreased sensitivity or no response to smoothened inhibition.
(§2) Using Ptch+/−Hic+/− medulloblastoma tumors freshly harvested from allografted nude mice, we have developed a short-term 48 h proliferation assay that enables us to assess the in vitro potency of Smo inhibitors. The read-out for proliferation uses incorporation of 3H thymidine. The assay reflects the in vivo sensitivity of tumor cells to Compound 1.
(§3) Table 1 summarizes the results of treating medulloblastoma cells in culture with Compound 1 (Smo inhibitor) and Compound A (mTor inhibitor), or combinations thereof. […] The potency of compound A in resistant tumors was increased in the presence of 5 and 20 uM of compound 1.

In assay [2] the test system is medulloblastoma cells derived from resistant Ptch+/−Hic+/− medulloblastoma tumors. In words: ex-vivo medulloblastoma proliferation assay (48 h, 3H thymidine incorporation), resistant tumors. The assay is classed as cell-based, mouse. Particulars: for IC50: Mus musculus, Medulloblastoma cell. On the procedure: as §1, §2, §3
The subject of assay [3] is Ptch+/−Hic+/− medulloblastoma allograft. Put plainly: Ptch+/−Hic+/− subcutaneous medulloblastoma allograft model. Particulars: po; for effect on tumor growth / tumor volume: 80 mg/kg qd Compound 1, 10 mg/kg qd Compound A, or combination, FIG. 1. The assay is classed as in vivo, Harlan nu/nu mice. On the procedure: Mouse medulloblastoma cells (1.0-5.0×10^6), dissociated directly from tumor fragments originally derived from spontaneously arising medulloblastomas in Ptch+/−Hic+/− mice, were inoculated subcutaneously into the right flank of Harlan nu/nu mice. Treatment was initiated approximately 7-10 days post implantation. […] Tumor volumes (mm3) and body weights (g) were recorded two or three times per week from all groups for analysis. Dose was body weight adjusted at time of dosing. Comparisons between treatment groups was performed using a non-parametric Kruskal-Wallis/Wilcoxon Rank Sum Test.
Tumors were calipered in two dimensions, and the volumes were calculated using the formula: (length×width2)/2, where length is the longer of the two measurements and width is the shorter one. Percent treatment/control (% T/C) values were calculated using the following formula: % T/C=100×ΔTf-i/ΔCf-i if ΔTf-i>0, % T/T0-100×ΔTf-i/T0 if ΔTf-i<0 (regression). A partial responder (PR) was defined as an animal whose tumor […] was less than 50% of the initial tumor volume by the end of the study. An animal with no palpable tumor by the end of study is defined as a complete responder (CR).
Ptch+/− mice develop medulloblastoma spontaneously (Romer, et al., Cancer Cell, Volume 6, Issue 3, pages 229-24, 2004). […] The heterozygous loss of Hic results in an earlier onset and increases the incidence rate of medulloblastomas (Briggs et al., Genes & Dev., 22: pages 770-785 2008). The in vivo efficacy of Compound 1 was evaluated in Ptch+/−Hic+/− mouse medulloblastoma allograft models, derived from corresponding transgenic mice and passaged in vivo, and following long-term continuous dosing. The following experiments were performed to evaluate if mTor inhibitors could be used either alone or in combination to treat resistant tumors or to overcome the development of resistance to Smo antagonists.
Next, a combination of Compound 1 and Compound A was explored in the Ptch+/−Hic+/− medulloblastoma allograft model.

Setting [4] is: Tumor type Sensitive, single agent, 48 h, 3H thymidine, read-out: IC50, proliferation of medulloblastoma cells.
[5] abbreviates: Tumor type Resistant, single agent, 48 h, 3H thymidine, read-out: IC50, proliferation of medulloblastoma cells.

Like-named read-outs stand apart in the source and are kept apart here.

Turning to `Cc1c(C(=O)Nc2ccc(N3C[C@@H](C)O[C@@H](C)C3)nc2)cccc1-c1ccc(OC(F)(F)F)cc1` [Compound 1, 2-Methyl-4′-trifluoromethoxy-biphenyl-3-carboxylic acid [6-(cis-2,6-dimethyl-morpholin-4-yl)-pyridin-3-yl]-amide], the IC50 in assay [1] (setting [4]) stood at 8 nM; in assay [1] (sensitive cells, read-out: IC50, inhibition of sensitive cells), 8 nM; in assay [2] (setting [5]), 9080 nM; in assay [2] (resistant tumors, read-out: IC50 in resistant tumors), 9000 nM. Besides, the “effect on tumor growth / tumor volume” value in assay [3] is recorded as “initially induced regression but tumors started to regrow”. Also, the “time to endpoint (tumor volume>700 mm3), in words” value in assay [3] (80 mg/kg qd Compound 1, or combination with 10 mg/kg qd Compound A, FIG. 2) is “significantly prolonged”.
With `CO[C@H]1C[C@@H]2CC[C@@H](C)[C@@](O)(O2)C(=O)C(=O)N2CCCC[C@H]2C(=O)O[C@H]([C@H](C)C[C@@H]2CC[C@@H](OCCO)[C@H](OC)C2)CC(=O)[C@H](C)/C=C(\C)[C@@H](O)[C@@H](OC)C(=O)[C@H](C)C[C@H](C)/C=C/C=C/C=C/1C` [Compound A, (1R,9S,12S,15R,16E,18R,19R,21R,23S,24E,26E,28E,30S,32S,35R)-1,18-dihydroxy-12-{(1R)-2-[(1S,3R,4R)-4-(2-hydroxyethoxy)-3-methoxycyclohexyl]-1-methylethyl}-19,30-dimethoxy-15,17,21,23,29,35-hexamethyl-11,36-dioxa-4-aza-tricyclol-[30.3.1.04.9]hexatriaconta-16,24,26,28-tetraene-2,3,10,14,20-pentaone], the IC50 turned out to be 9 nM in assay [1] (setting [4]) and 2 nM in assay [2] (setting [5]). For the same molecule, the “potency of compound A in resistant tumors” value in assay [2] (in the presence of 5 and 20 uM of compound 1) was “increased”. In addition, the “inhibition of both sensitive and resistant tumors (comparison of IC50s)” value in assay [2] (resistant compared with sensitive tumors) is “inhibited both sensitive and resistant tumors with similar IC50s”. For the same molecule, the “time to endpoint (tumor volume>700 mm3)” value in assay [3] (10 mg/kg qd Compound A, FIG. 2) was roughly 20 days. The “effect on tumor growth / tumor volume” value in assay [3] is on record as “only a moderate effect on tumor growth compared to vehicle control”.
